Data on two compounds can be found in PMC11496352, “Synthesis of Novel Plant-Derived Encapsulated Radiolabeled Compounds for the Diagnosis of Parkinson’s Disease and the Evaluation of Biological Effects with In Vitro/In Vivo Methods” (Molecular Neurobiology, 2024).

Structures are written as SMILES.

The subject of one data set is PC-12 cell line. The experiment in a line: Cytotoxicity study (MTT) on PC-12 cells. In kind it is cell-based. Particulars: Rattus norvegicus. Here is the method: (§1) SY-SH5Y and PC-12 cell lines were used in in vitro cell culture studies. SH-SY5Y cells in a medium consisting of minimum Essential Medium (Eagle) and 10% fetal bovine serum (FBS); PC-12 cells were produced in a medium consisting of RPMI 1640 medium, 10% horse serum, and 5% fetal bovine serum (FBS). All cells were incubated in 5% CO2 and 37 °C. Fresh medium was added by changing the medium every 2 days. After the cells were produced enough to cover 80% of the flasks, they were separated from the flask by means of a 0.25% (W / V) trypsin–EDTA solution and plated in 24-well plates for incorporation studies and 96-well plates for cytotoxicity studies and study groups were formed.
(§2) Cells were prepared from SY-SH5Y and PC-12 cell suspensions at 5 × 10^4 cells / mL in each well of 96-well plates. One hundred microliters of cell suspension was added to each well-formed and the solution containing MA prepared with sterile SF at five different (10^0, 10^–1, 10^–2, 10^–3, 10^–4 nM) concentrations was added to the wells outside the control. As a negative control, media without cells and reagents were used. In the study, each parameter was studied in triplicate. The plate containing the cells was incubated at 37 °C in 5% CO2. SH-SY5Y cells were incubated at 24, 48, and 72 h of incubation by adding 10 μl of WST solution to each well and incubating for another 4 h. On other hand, MTT solution was added to PC-12 cells and incubated for 4 more hours. At the end of the incubation, the MTT solution on the cells was removed and 200 µL DMSO was added to the PC-12 cells. All cells were read using a spectrophotometer, at 450 nm wavelength and 690 nm reference range, for the absorbance value of each well. Negative control was accepted as zero absorbance and % viability values were calculated with the formula [(measured absorbance value/control value) × 100] and the same procedures were repeated for the MA-L-DOPA compound.

The subject of a further data set is SH-SY5Y cell line. Nature of the data set: Cytotoxicity study (WST) on SH-SY5Y cells. In kind it is cell-based. Particulars: Homo sapiens. The method, then:
as §1, §2

Details of data set [1]: method as in PMID 27992940. Particulars: rats; cited from earlier work.

On to `C[C@H]1[C@H](C)CC[C@]2(C(=O)O[C@@H]3O[C@H](CO[C@@H]4O[C@H](CO)[C@@H](O[C@@H]5O[C@@H](C)[C@H](O)[C@@H](O)[C@H]5O)[C@H](O)[C@H]4O)[C@@H](O)[C@H](O)[C@H]3O)CC[C@]3(C)C(=CC[C@@H]4[C@@]5(C)C[C@@H](O)[C@H](O)[C@@](C)(CO)[C@@H]5[C@H](O)C[C@]43C)[C@H]12` [MA, Madecassoside], for which the IC50 – broadly, the concentration at which inhibition is half-maximal – in the data set with PC-12 cell line (PC-12, 24 hour) is 12.8 ± 2.21 µM; in the data set on PC-12 cell line (PC-12, 48 hour), 12.6 ± 2.41 µM; in the data set with PC-12 cell line (PC-12, 72 hour), 8.54 ± 1.37 µM; with SH-SY5Y cell line (24 hour) it was 12.9 ± 2.14 µM; with SH-SY5Y cell line (48 hour), 12.8 ± 2.24 µM; in the data set with SH-SY5Y cell line (72 hour), 7.45 ± 1.14 µM. In addition, the “time within which uptake in the brain tissue occurs” value in data set [1] is not above 1 h.
With `CC1CCC2(C(=O)OC3OC(COC4OC(CO)C(OC5OC(C)C(O)C(OC(=O)C(N)Cc6ccc(O)c(O)c6)C5O)C(O)C4O)C(O)C(O)C3O)CCC3(C)C(=CCC4C5(C)CC(O)C(O)C(C)(CO)C5C(O)CC43C)C2C1C` [MA-L-DOPA], the IC50 with PC-12 cell line (PC-12, 24 hour) came to 12.5 ± 2.21 µM; in the data set with PC-12 cell line (PC-12, 48 hour), 10 ± 2.06 µM; in the data set on PC-12 cell line (PC-12, 72 hour), 6.93 ± 1.09 µM; in the data set on SH-SY5Y cell line (24 hour), 12.9 ± 2.09 µM; with SH-SY5Y cell line (48 hour), 10.1 ± 2.08 µM; with SH-SY5Y cell line (72 hour), 7.16 ± 1.11 µM.
